Here are results for 22 compounds from US8574563B2 (Bristol-Myers Squibb Company, priority 2006, dated 2013).

A word on the EC50: it is the concentration that produces a half-maximal response.

This assay concerns HCV 1b-377-neo replicon cells. The assay can be described thus: HCV replicon assay, HCV 1b-377-neo replicon cells (1b FRET). In kind it is cell-based, Hepatitis C virus genotype 1b. The conditions noted are these: Hepatitis C virus, HCV 1b-377-neo replicon cells; HCV 1b genotype; read-out: EC50 range against HCV 1b (Table 2, Range). The procedure:
An HCV Replion assay was utilized in the present disclosure, and was prepared, conducted and validated as described in commonly owned PCT/US2006/022197 and in O'Boyle et. al. Antimicrob Agents Chemother. 2005 April; 49(4):1346-53.
HCV 1b-377-neo replicon cells were used to test the currently described compound series as well as cells resistant to compound A due to a Y2065H mutation in NS5A (described in application PCT/US2006/022197). The compounds tested were determined to have more than 10-fold less inhibitory activity on cells resistant to compound A than wild-type cells indicating a related mechanism of action between the two compound series. Thus, the compounds of the present disclosure can be effective to inhibit the function of the HCV NS5A protein and are understood to be as effective in combinations as previously described in application PCT/US2006/022197 and commonly owned WO/04014852. Further, the compounds of the present disclosure can be effective against the HCV 1b genotype. It should also be understood that the compounds of the present disclosure can inhibit multiple genotypes of HCV. […] In one embodiment compounds of the present disclosure are active against the 1a, 1b, 2a, 2b, 3a, 4a, and 5a genotypes.
Turning to `CCN(C)[C@@H](C(=O)N1CCC[C@H]1c1ncc(-c2ccc(-c3ccc(-c4cnc([C@@H]5CCCN5C(=O)[C@@H](c5ccccc5)N(C)CC)[nH]4)cc3)cc2)[nH]1)c1ccccc1` [Example 22, (1R,1′R)-2,2′-(4,4′-biphenyldiylbis(1H-imidazole-5,2-diyl(2S)-2,1-pyrrolidinediyl))bis(N-ethyl-N-methyl-2-oxo-1-phenylethanamine)], the EC50 is 0.001 to 0.999 nM.

As to `O=CN[C@@H](C(=O)N1CCC[C@H]1c1ncc(-c2ccc(-c3ccc(-c4cnc([C@@H]5CCCN5C(=O)[C@H](NC=O)c5ccccc5)[nH]4)cc3)cc2)[nH]1)c1ccccc1` [Example 23, N,N′-(4,4′-biphenyldiylbis(1H-imidazole-5,2-diyl(2S)-2,1-pyrrolidinediyl((1R)-2-oxo-1-phenyl-2,1-ethanediyl)))diformamide], the EC50 was in the range of 0.001 to 0.999 nM.

Turning to `O=C(N1CCC[C@H]1c1ncc(-c2ccc(-c3ccc(-c4cnc([C@@H]5CCCN5C(=O)C5(O)CC5)[nH]4)cc3)cc2)[nH]1)C1(O)CC1` [Example 24, 1,1′-(4,4′-biphenyldiylbis(1H-imidazole-5,2-diyl(2S)-2,1-pyrrolidinediylcarbonyl))dicyclopropanol], the EC50 lay within 1 to 99 nM.

For the compound `O=C([C@@H](c1ccccc1)N1CCCCC1)N1CCC[C@H]1c1ncc(-c2ccc(-c3ccc(-c4cnc([C@@H]5CCCN5C(=O)[C@@H](c5ccccc5)N5CCCCC5)[nH]4)cc3)cc2)[nH]1` [Example 24-1, 1,1′-(4,4′-biphenyldiylbis(1H-imidazole-5,2-diyl(2S)-2,1-pyrrolidinediyl((1R)-2-oxo-1-phenyl-2,1-ethanediyl)))dipiperidine], the 50% effective concentration (EC50) fell in the range of 0.001 to 0.999 nM.

Consider `CC1(O)CCN([C@@H](C(=O)N2CCC[C@H]2c2ncc(-c3ccc(-c4ccc(-c5cnc([C@@H]6CCCN6C(=O)[C@@H](c6ccccc6)N6CCC(C)(O)CC6)[nH]5)cc4)cc3)[nH]2)c2ccccc2)CC1` [Example 24-2, 1,1′-(4,4′-biphenyldiylbis(1H-imidazole-5,2-diyl(2S)-2,1-pyrrolidinediyl((1R)-2-oxo-1-phenyl-2,1-ethanediyl)))bis(4-methyl-4-piperidinol)], for which the EC50 was in the range of 0.001 to 0.999 nM.

`COC(=O)N[C@@H](C(=O)N1CCC[C@H]1c1ncc(-c2ccc(-c3ccc(-c4cnc([C@@H]5CCCN5C(=O)[C@H](NC(=O)OC)c5ccccc5Cl)[nH]4)cc3)cc2)[nH]1)c1ccccc1Cl` [Example 24-3, dimethyl (4,4′-biphenyldiylbis(1H-imidazole-5,2-diyl(2S)-2,1-pyrrolidinediyl((1R)-1-(2-chlorophenyl)-2-oxo-2,1-ethanediyl)))biscarbamate]: the EC50 fell in the range of 0.001 to 0.999 nM.

Regarding `CN(C)C(=O)N[C@@H](C(=O)N1CCC[C@H]1c1nc(-c2ccc(-c3ccc(-c4c[nH]c([C@@H]5CCCN5C(=O)[C@H](NC(=O)N(C)C)c5ccccc5)n4)cc3)cc2)c[nH]1)c1ccccc1` [Example 24-4a, N′,N′′′-(4,4′-biphenyldiylbis(1H-imidazole-4,2-diyl(2S)-2,1-pyrrolidinediyl((1R)-2-oxo-1-phenyl-2,1-ethanediyl)))bis(1,1-dimethylurea)], the EC50 was in the range of 0.001 to 0.999 nM.

For the compound `CNC(=O)N[C@@H](C(=O)N1CCC[C@H]1c1ncc(-c2ccc(-c3ccc(-c4cnc([C@@H]5CCCN5C(=O)[C@H](NC(=O)NC)c5ccccc5)[nH]4)cc3)cc2)[nH]1)c1ccccc1` [Example 24-4b, N′,N′′′-(4,4′-biphenyldiylbis(1H-imidazole-5,2-diyl(2S)-2,1-pyrrolidinediyl((1R)-2-oxo-1-phenyl-2,1-ethanediyl)))bis(1-methylurea)], the 50% effective concentration (EC50) fell in the range of 1 to 99 nM.

`CCNC(=O)N[C@@H](C(=O)N1CCC[C@H]1c1ncc(-c2ccc(-c3ccc(-c4cnc([C@@H]5CCCN5C(=O)[C@H](NC(=O)NCC)c5ccccc5)[nH]4)cc3)cc2)[nH]1)c1ccccc1` [Example 24-4c, N′,N′′′-(4,4′-biphenyldiylbis(1H-imidazole-5,2-diyl(2S)-2,1-pyrrolidinediyl((1R)-2-oxo-1-phenyl-2,1-ethanediyl)))bis(1-ethylurea)]: the EC50 lay within 0.001 to 0.999 nM.

Regarding `O=C(NC1CCCC1)N[C@@H](C(=O)N1CCC[C@H]1c1ncc(-c2ccc(-c3ccc(-c4cnc([C@@H]5CCCN5C(=O)[C@H](NC(=O)NC5CCCC5)c5ccccc5)[nH]4)cc3)cc2)[nH]1)c1ccccc1` [Example 24-4d, N′,N′′′-(4,4′-biphenyldiylbis(1H-imidazole-5,2-diyl(2S)-2,1-pyrrolidinediyl((1R)-2-oxo-1-phenyl-2,1-ethanediyl)))bis(1-cyclopentylurea)], the concentration giving a half-maximal response (EC50) fell in the range of 0.001 to 0.999 nM.

As to `CN(CC(=O)N1CCC[C@H]1c1ncc(-c2ccc(-c3ccc(-c4cnc([C@@H]5CCCN5C(=O)CN(C)Cc5ccccc5)[nH]4)cc3)cc2)[nH]1)Cc1ccccc1` [Example 24-4e, 2,2′-(4,4′-biphenyldiylbis(1H-imidazole-5,2-diyl(2S)-2,1-pyrrolidinediyl))bis(N-benzyl-N-methyl-2-oxoethanamine)], the EC50 fell in the range of 1 to 99 nM.

As to `C[C@@H](C(=O)N1CCC[C@H]1c1ncc(-c2ccc(-c3ccc(-c4cnc([C@@H]5CCCN5C(=O)[C@H](C)N(C)Cc5ccccc5)[nH]4)cc3)cc2)[nH]1)N(C)Cc1ccccc1` [Example 24-4f, (2S,2′S)-1,1′-(4,4′-biphenyldiylbis(1H-imidazole-5,2-diyl(2S)-2,1-pyrrolidinediyl))bis(N-benzyl-N-methyl-1-oxo-2-propanamine)], the EC50 was 100 to 999 nM.

Consider `CC(C)C(C(=O)N1CCC[C@H]1c1ncc(-c2ccc(-c3ccc(-c4cnc([C@@H]5CCCN5C(=O)C(C(C)C)N(C)Cc5ccccc5)[nH]4)cc3)cc2)[nH]1)N(C)Cc1ccccc1` (stereo partly drawn) [Example 24-4g, 1,1′-(4,4′-biphenyldiylbis(1H-imidazole-5,2-diyl(2S)-2,1-pyrrolidinediyl))bis(N-benzyl-N,3-dimethyl-1-oxo-2-butanamine)], for which the EC50 lay in the range of 1000 to 10000 nM.

Regarding `O=C(C(c1ccccc1)N1CCC(O)CC1)N1CCC[C@H]1c1ncc(-c2ccc(-c3ccc(-c4cnc([C@@H]5CCCN5C(=O)C(c5ccccc5)N5CCC(O)CC5)[nH]4)cc3)cc2)[nH]1` (stereo partly drawn) [Example 24-4h, 1,1′-(4,4′-biphenyldiylbis(1H-imidazole-5,2-diyl(2S)-2,1-pyrrolidinediyl(2-oxo-1-phenyl-2,1-ethanediyl)))di(4-piperidinol)], the EC50 lay within 0.001 to 0.999 nM.

For `CN(C)[C@@H](C(=O)N1C[C@@H](F)C[C@H]1c1ncc(-c2ccc(-c3ccc(-c4cnc([C@@H]5C[C@H](F)CN5C(=O)[C@@H](c5ccccc5)N(C)C)[nH]4)cc3)cc2)[nH]1)c1ccccc1` [Example 24-5], the concentration giving a half-maximal response (EC50) lay within 0.001 to 0.999 nM.

As to `CCN(CC)[C@@H](C(=O)N1C[C@@H](F)C[C@H]1c1ncc(-c2ccc(-c3ccc(-c4cnc([C@@H]5C[C@H](F)CN5C(=O)[C@@H](c5ccccc5)N(CC)CC)[nH]4)cc3)cc2)[nH]1)c1ccccc1` [Example 24-6], the EC50 lay within 0.001 to 0.999 nM.

Take `O=C([C@@H](c1ccccc1)N1CCCCC1)N1C[C@@H](F)C[C@H]1c1ncc(-c2ccc(-c3ccc(-c4cnc([C@@H]5C[C@H](F)CN5C(=O)[C@@H](c5ccccc5)N5CCCCC5)[nH]4)cc3)cc2)[nH]1` [Example 24-7]: the EC50 is 0.001 to 0.999 nM.

`O=C([C@@H](c1ccccc1)N1CCCCC1)N1CC(F)(F)C[C@H]1c1nc(-c2ccc(-c3ccc(-c4cnc([C@@H]5CC(F)(F)CN5C(=O)[C@@H](c5ccccc5)N5CCCCC5)[nH]4)cc3)cc2)c[nH]1` [Example 24-8, 1,1′-(4,4′-biphenyldiylbis(1H-imidazol-4,2-diyl((2S)-4,4-difluoro-2,1-pyrrolidinediyl)((1R)-2-oxo-1-phenyl-2,1-ethanediyl)))dipiperidine]: the EC50 was 0.001 to 0.999 nM.

With `COC(=O)N[C@@H](C(=O)N1CC(F)(F)C[C@H]1c1nc(-c2ccc(-c3ccc(-c4cnc([C@@H]5CC(F)(F)CN5C(=O)[C@H](NC(=O)OC)c5ccccc5)[nH]4)cc3)cc2)c[nH]1)c1ccccc1` [Example 24-9, dimethyl (4,4′-biphenyldiylbis(1H-imidazole-4,2-diyl((2S)-4,4-difluoro-2,1-pyrrolidinediyl)((1R)-2-oxo-1-phenyl-2,1-ethanediyl)))biscarbamate], the half-maximal effective concentration (EC50) lay within 0.001 to 0.999 nM.

For the compound `O=C([C@@H](c1ccccc1)N1CCCCC1)N1CC(F)(F)C[C@H]1c1nc(-c2ccc(-c3ccc(-c4cnc([C@@H]5CCCN5C(=O)[C@@H](c5ccccc5)N5CCCCC5)[nH]4)cc3)cc2)c[nH]1` [Example 24-10, 1-((R)-2-((2S)-2-(4-(4′-(2-((2S)-4,4-difluoro-1-((2R)-2-phenyl-2-(1-piperidinyl)acetyl)-2-pyrrolidinyl)-1H-imidazol-4-yl)-4-biphenylyl)-1H-imidazol-2-yl)-1-pyrrolidinyl)-2-oxo-1-phenylethyl)piperidine], the EC50 was in the range of 0.001 to 0.999 nM.

For `COC(=O)N[C@@H](C(=O)N1C[C@H](O)C[C@H]1c1nc(-c2ccc(-c3ccc(-c4c[nH]c([C@@H]5C[C@@H](O)CN5C(=O)[C@H](NC(=O)OC)c5ccccc5)n4)cc3)cc2)c[nH]1)c1ccccc1` [Example 24-11, dimethyl (4,4′-biphenyldiylbis(1H-imidazole-5,2-diyl((2S,4R)-4-hydroxy-2,1-pyrrolidinediyl)((1R)-2-oxo-1-phenyl-2,1-ethanediyl)))biscarbamate], the EC50 lay in the range of 1 to 99 nM.

On to `O=C([C@H](O)c1ccccc1)N1C[C@H](O)C[C@H]1c1ncc(-c2ccc(-c3ccc(-c4cnc([C@@H]5C[C@@H](O)CN5C(=O)[C@H](O)c5ccccc5)[nH]4)cc3)cc2)[nH]1` [Example 24-12, (3R,5S,3′R,5′S)-5,5′-(4,4′-biphenyldiylbis(1H-imidazole-5,2-diyl))bis(1-((2R)-2-hydroxy-2-phenylacetyl)-3-pyrrolidinol)], for which the EC50 lay in the range of 1 to 99 nM.
